Results reported in US7556807B2, “Signal peptides, nucleic acid molecules and methods for treatment of caries” (priority 2001, dated 2009).

Columns and labels:
[1] = test system: S. mutans comC deficient cells; assay: Acid resistance tolerance of S. mutans comC deficient cells with added synthetic CSP (FIG. 12); format: cell-based, Streptococcus mutans; details: synthetic CSP added to culture of comC mutant; compared to parent strain NG8
Method: The ability of CSP [SEQ ID NO:11] to promote acid resistance tolerance is determined by measuring the cell survival rate of S. mutans when exposed to acidic pH. In one example, S. mutans are first grown in batch culture to assay acid tolerance response in ‘standard’ log- and stationary-phase cells by using a modification of methods described previously by Svensäter et al. Oral Microbiol. Immunol., 12:266-73. Mid-log-phase cells are obtained by transferring one volume of overnight culture into nine volumes (1:10) of fresh TYG medium (pH 7.5) and incubated at 37° C. with 5% CO2 for 2 hours. These cells are then collected by centrifugation at 8,000×g for 10 min and resuspended in 2 ml of fresh TYG (pH 5.5) at various cell densities as determined by O.D600. The cells are induced for acid adaptation by incubation at pH 5.5 for 2 h at 37° C. with 5% CO2. The adapted log-phase cells are then exposed to the killing pH. Killing pH is pre-determined by incubating unadapted, mid-log phase cells in TYG medium at pH values from 6.0 to 2.0. Stationary-phase cells are prepared by re-suspending late-log phase cells in TY medium (tryptone-yeast extract) without glucose. […] Adaptation of both log- and stationary-phase cells to acidic pH is determined by measuring the ability of bacterial cells to survive a killing pH for 3 h. […]

[2] = test system: S. mutans wild-type UA159; assay: S. mutans biofilms formed on polystyrene microtiter plates (b), SDM-glucose, safranin (first study); format: cell-based, Streptococcus mutans; details: 5 μg/ml of peptide analog; ↓ = reduced biomass compared to biofilm grown in presence of wild-type CSP
Method: Biofilms were developed in 96-well polystyrene microtiter plates. […] Wells without cells were used as blank controls. […] After the incubation, the planktonic cells were carefully removed and the plates were air dried overnight. The plates were then stained with 0.01% (wt/vol) safranin for 10 min, rinsed with sterile distilled water and air dried. Biofilms were quantified by measuring the absorbance of stained biofilms at 490 nm with a microplate reader (model 3550; Bio-Rad Laboratories, Richmond, Calif.).

[3] = test system: S. mutans wild-type UA159; assay: S. mutans acid resistance assay (growth in THYE at pH 7.5 and pH 5.5); format: cell-based, Streptococcus mutans; details: 5 μg/ml of peptide analog; for Growth (pH 7.5): THYE pH 7.5; for Acid resistance (pH 5.5): growth in THYE pH 5.5
Method: The effect of peptides on acid tolerance was evaluated by assessment of growth in THYE at pH 7.5 and pH 5.5. Overnight S. mutans wild-type UA159 cells were diluted (1:20) with prewarmed THYE broth and incubated at 37° C. in air with 5% CO2 until an OD600 of approximately 0.4 was reached. A 20-fold dilution was made into 400 μl of either THYE pH 7.5 or THYE pH 5.5 broth containing different concentrations (0, 0.1, 0.5, 2, and 5 μg per ml) of peptide analogs and added in the individual wells of a 100-well Bioscreen C plate in triplicate. Wells without cells were used as blank controls. A Bioscreen microbiology reader (Labsystems, Helsinki, Finland) was employed to continuously grow cells and measure cell growth for 16 h at 37° C. Measurements were taken every 20 min with shaking to prevent cell aggregation.

[4] = test system: S. mutans comC null mutant; details: exogenous addition of synthetic CSP; Li et al., 2002; cited from earlier work
[5] = test system: S. mutans comD null mutant; assay: Genetic transformation of S. mutans comD null mutant in presence of H1; format: cell-based, Streptococcus mutans; details: different concentrations of H1
From the text: An S. mutans UA159 comD null mutant was constructed by a PCR-based deletion strategy involving restriction-ligation and allelic replacement as described previously (Lau et al., 2002). The primers used to construct and confirm the S. mutans comD deletion mutant were P1-HK13 (5′-[…]-3′; SEQ ID NO:52), P2-HK13 (5′-[…]-3′; SEQ ID NO:53), P3-HK13 (5′-[…]-3′; SEQ ID NO:54), P4-HK13 (5′-AGATTATCATTGGC GGAAGCG-3′; SEQ ID NO:55), Erm-19 (5′-[…]-3′; SEQ ID NO:56), and Erm-20 (5′-[…] TAGAAT-3′; SEQ ID NO:57).
To determine if the peptide analogs had any impact on the development of genetic competence, S. mutans UA159 wild-type cells were assayed for genetic transformation. Overnight cultures of S. mutans UA159 were diluted (1:20) with prewarmed THYE broth and incubated at 37° C. in air with 5% CO2 until an optical density (OD) of approximately 0.1 at 600 nm was reached. The culture was then divided into six aliquots containing 1 μg/ml of plasmid pDL289 and different concentrations (0, 0.1, 0.5, 2, and 5 μg per ml) of peptide analogs. […] Total recipient cells were counted by spreading serial dilutions on THYE agar plates without antibiotic. Transformation efficiency was expressed as the percentage of kanamycin resistant transformants over the total number of recipient cells.

| Substance | Survival of low pH challenge by comC mutant [1] | Bioflim formation (SDM-glucose) [2] | Growth (pH 7.5) [3] | Acid resistance (pH 5.5) [3] | Biofilm phenotype of comC defective mutant [4] | Effect of H1 on genetic competence in comD null mutant [5] |
| --- | --- | --- | --- | --- | --- | --- |
| SGSLSTFFRLFNRSFTQALGK (MKKTLSLKNDFKEIKTDELEIIIGGSGSLSTFFRLFNRSFTQALGK; Streptococcus mutans) [CSP, reference compound] | restored the ability of the mutant to survive a low pH challenge | no effect | ↓growth | growth | restores the wild-type phenotype | – |
| H1: S. mutans CSP analog, 4th residue removed from C′ (SGSLSTFFRLFNVSFTQALGK; D2 peptide analog) | – | no effect | no effect | significant decrease in cell growth | – | ComD-dependent process |
